Assay results reported in ChEMBL document CHEMBL1781969, “4β-[(4-Alkyl)-1,2,3-triazol-1-yl] podophyllotoxins as anticancer compounds: design, synthesis and biological evaluation” (Eur J Med Chem, 2011).
Active and inactive are the calls of the source. No cut-off for these calls is given here.

Columns and labels:
SF-295 = experiment: Cytotoxicity against human SF295 cells after 48 hrs by sulforhodamine B assay; format: functional, cell-based; settings: SF-295, 48 h
MCF7 [1] = experiment: Cell cycle arrest in human MCF7 cells assessed as accumulation at G2/M-phase at 5 uM after 24 hrs using propidium iodide staining by flow cytometry (reference value: 19.91%); format: functional
MCF7 [2] = experiment: Cell cycle arrest in human MCF7 cells assessed as accumulation in S-phase at 5 uM after 24 hrs using propidium iodide staining by flow cytometry (reference value: 25.29%); format: functional
MCF7 [3] = experiment: Cell cycle arrest in human MCF7 cells assessed as accumulation at G1/G0-phase at 5 uM after 24 hrs using propidium iodide staining by flow cytometry (reference value: 47.42%); format: functional
MCF7 [4] = experiment: Cell cycle arrest in human MCF7 cells assessed as accumulation at sub-G1 phase at 5 uM after 24 hrs using propidium iodide staining by flow cytometry (reference value: 7.69%); format: functional
MCF7 [5] = experiment: Cell cycle arrest in human MCF7 cells assessed as accumulation at G2/M-phase at 1 uM after 24 hrs using propidium iodide staining by flow cytometry (reference value: 19.91%); format: functional
MCF7 [6] = experiment: Cell cycle arrest in human MCF7 cells assessed as accumulation in S-phase at 1 uM after 24 hrs using propidium iodide staining by flow cytometry (reference value: 25.29%); format: functional
MCF7 [7] = experiment: Cell cycle arrest in human MCF7 cells assessed as accumulation at G1/G0-phase at 1 uM after 24 hrs using propidium iodide staining by flow cytometry (reference value: 47.42%); format: functional
MCF7 [8] = experiment: Cell cycle arrest in human MCF7 cells assessed as accumulation at sub-G1 phase at 1 uM after 24 hrs using propidium iodide staining by flow cytometry (reference value: 7.69%); format: functional
MCF7 [9] = experiment: Induction of apoptosis in human MCF7 cells assessed as DNA ladder formation at 1 uM after 24 hrs using ethidium bromide staining by agarose gel electrophoresis; format: functional, cell-based
HEp-2 = experiment: Cytotoxicity against human Hep2 cells after 48 hrs by sulforhodamine B assay; format: functional, cell-based; settings: HEp-2, 48 h
PC-3 = experiment: cells; settings: Homo sapiens, PC-3, 48 h
Description: Cytotoxicity against human PC3 cells after 48 hrs by sulforhodamine B assay

A549 = experiment: cells; settings: Homo sapiens, A549, 48 h
Description: Cytotoxicity against human A549 cells after 48 hrs by sulforhodamine B assay

MCF7 [10] = experiment: cells; settings: Homo sapiens, MCF7, 48 h
Description: Cytotoxicity against human MCF7 cells after 48 hrs by sulforhodamine B assay

HCT-15 = experiment: cells; settings: Homo sapiens, HCT-15, 48 h
Description: Cytotoxicity against human HCT15 cells after 48 hrs by sulforhodamine B assay

SMILES | IC50 (SF-295) | Activity (MCF7 [1]) | Activity (MCF7 [2]) | Activity (MCF7 [3]) | Activity (MCF7 [4]) | Activity (MCF7 [5]) | Activity (MCF7 [6]) | Activity (MCF7 [7]) | Activity (MCF7 [8]) | Activity (MCF7 [9]) | IC50 (HEp-2) | IC50 (PC-3) | IC50 (A549) | IC50 (MCF7 [10]) | IC50 (HCT-15)
CCc1cn([C@@H]2c3cc4c(cc3[C@@H](c3cc(OC)c(OC)c(OC)c3)[C@H]3C(=O)OC[C@@H]32)OCO4)nn1 | 1.8 µM | 1.74% | 2.84% | 16.28% | 80.1% | 1.96% | 5.99% | 22.27% | 69.34% | Active | 0.06 µM | 0.03 µM | 35 µM | 0.4 µM | 0.4 µM
CCCCCc1cn([C@@H]2c3cc4c(cc3[C@@H](c3cc(OC)c(OC)c(OC)c3)[C@H]3C(=O)OC[C@@H]32)OCO4)nn1 | 24 µM |  |  |  |  |  |  |  |  |  | 7.7 µM | 8.4 µM | 39 µM | 9.5 µM | 11 µM
COc1cc([C@@H]2c3cc4c(cc3[C@@H](n3cc(CO)nn3)[C@H]3COC(=O)[C@H]23)OCO4)cc(OC)c1O | 15 µM |  |  |  |  |  |  |  |  |  | 6.7 µM | 8.2 µM | 18 µM | 0.6 µM | 18 µM
CCCCCCCCCCc1cn([C@@H]2c3cc4c(cc3[C@@H](c3cc(OC)c(O)c(OC)c3)[C@H]3C(=O)OC[C@@H]32)OCO4)nn1 | 13 µM |  |  |  |  |  |  |  |  |  | 19 µM | 19 µM | 30 µM | 11 µM | 15 µM
CCc1cn([C@@H]2c3cc4c(cc3[C@@H](c3cc(OC)c(O)c(OC)c3)[C@H]3C(=O)OC[C@@H]32)OCO4)nn1 | 4.8 µM |  |  |  |  |  |  |  |  |  | 0.05 µM | 0.06 µM | 17 µM | 0.04 µM | 1.9 µM
CCCc1cn([C@@H]2c3cc4c(cc3[C@@H](c3cc(OC)c(OC)c(OC)c3)[C@H]3C(=O)OC[C@@H]32)OCO4)nn1 | 3.6 µM | 1.07% | 11.44% | 10.56% | 78.16% | 3.39% | 16.17% | 27.81% | 55.65% | Active | 1.6 µM | 5.1 µM | 39 µM | 1.4 µM | 0.03 µM
CCCCCCCCc1cn([C@@H]2c3cc4c(cc3[C@@H](c3cc(OC)c(OC)c(OC)c3)[C@H]3C(=O)OC[C@@H]32)OCO4)nn1 | 14 µM |  |  |  |  |  |  |  |  |  | 18 µM | 17 µM | > 100 µM | 9.3 µM | > 100 µM
CCCCCCCCCCc1cn([C@@H]2c3cc4c(cc3[C@@H](c3cc(OC)c(OC)c(OC)c3)[C@H]3C(=O)OC[C@@H]32)OCO4)nn1 | 6.2 µM |  |  |  |  |  |  |  |  |  | 5.8 µM | 5.5 µM | > 100 µM | 5.7 µM | 29 µM
COc1cc([C@@H]2c3cc4c(cc3[C@@H](O[C@@H]3O[C@@H]5CO[C@@H](C)O[C@H]5[C@H](O)[C@H]3O)[C@H]3COC(=O)[C@H]23)OCO4)cc(OC)c1O [ETOPOSIDE] | 13.5 µM |  |  |  |  |  |  |  |  |  |  |  |  | 19 µM | 7.15 µM
CCCCc1cn([C@@H]2c3cc4c(cc3[C@@H](c3cc(OC)c(OC)c(OC)c3)[C@H]3C(=O)OC[C@@H]32)OCO4)nn1 | 8.1 µM |  |  |  |  |  |  |  |  |  | 9.6 µM | 6.6 µM | 82 µM | 9.8 µM | 11 µM
CCCCCCc1cn([C@@H]2c3cc4c(cc3[C@@H](c3cc(OC)c(OC)c(OC)c3)[C@H]3C(=O)OC[C@@H]32)OCO4)nn1 | 10 µM |  |  |  |  |  |  |  |  |  | 10 µM | 6.4 µM | 35 µM | 8.6 µM | 27 µM
COc1cc([C@@H]2c3cc4c(cc3[C@@H](n3cc(CO)nn3)[C@H]3COC(=O)[C@H]23)OCO4)cc(OC)c1OC | 2.1 µM |  |  |  |  |  |  |  |  |  | 0.06 µM | 0.06 µM | > 100 µM | 0.01 µM | 15 µM
CCCc1cn([C@@H]2c3cc4c(cc3[C@@H](c3cc(OC)c(O)c(OC)c3)[C@H]3C(=O)OC[C@@H]32)OCO4)nn1 | 2.3 µM |  |  |  |  |  |  |  |  |  | 2.9 µM | 0.2 µM | 27 µM | 5.7 µM | 0.8 µM
CCCCc1cn([C@@H]2c3cc4c(cc3[C@@H](c3cc(OC)c(O)c(OC)c3)[C@H]3C(=O)OC[C@@H]32)OCO4)nn1 | 21 µM |  |  |  |  |  |  |  |  |  | 17 µM | 12 µM | 35 µM | 20 µM | 34 µM
CCCCCCCCc1cn([C@@H]2c3cc4c(cc3[C@@H](c3cc(OC)c(O)c(OC)c3)[C@H]3C(=O)OC[C@@H]32)OCO4)nn1 | 5.7 µM |  |  |  |  |  |  |  |  |  | 3.8 µM | 5.1 µM | > 100 µM | 11 µM | 13 µM
CCCCCc1cn([C@@H]2c3cc4c(cc3[C@@H](c3cc(OC)c(O)c(OC)c3)[C@H]3C(=O)OC[C@@H]32)OCO4)nn1 | 4.3 µM |  |  |  |  |  |  |  |  |  | 21 µM | 4.7 µM | 26 µM | 14 µM | 2.1 µM
CCCCCCCc1cn([C@@H]2c3cc4c(cc3[C@@H](c3cc(OC)c(O)c(OC)c3)[C@H]3C(=O)OC[C@@H]32)OCO4)nn1 | 10 µM |  |  |  |  |  |  |  |  |  | 6 µM | 5.8 µM | 45 µM | 13 µM | 15 µM
CCCCCCc1cn([C@@H]2c3cc4c(cc3[C@@H](c3cc(OC)c(O)c(OC)c3)[C@H]3C(=O)OC[C@@H]32)OCO4)nn1 | 18 µM |  |  |  |  |  |  |  |  |  | > 100 µM | 8.7 µM | 26 µM | 19 µM | 11 µM
CCCCCCCc1cn([C@@H]2c3cc4c(cc3[C@@H](c3cc(OC)c(OC)c(OC)c3)[C@H]3C(=O)OC[C@@H]32)OCO4)nn1 | 25 µM |  |  |  |  |  |  |  |  |  | 9.8 µM | 23 µM | 36 µM | 6.4 µM | 45 µM
